Reference: patent US9409908B2 (priority 2012, dated 2016)
Counter-ions that a name gives are not always drawn. Like-named read-outs stand apart in the source and are kept apart here.

Legend:
[1] = target: purified human plasma kallikrein (Homo sapiens (Human), UniProt P03952); assay: biochemical; assay type: biochemical
[2] = target: purified human Factor XIa (Homo sapiens (Human), UniProt P03951); assay: biochemical; assay type: biochemical
Sequence of purified human Factor XIa (P03951 whole entry, looked up): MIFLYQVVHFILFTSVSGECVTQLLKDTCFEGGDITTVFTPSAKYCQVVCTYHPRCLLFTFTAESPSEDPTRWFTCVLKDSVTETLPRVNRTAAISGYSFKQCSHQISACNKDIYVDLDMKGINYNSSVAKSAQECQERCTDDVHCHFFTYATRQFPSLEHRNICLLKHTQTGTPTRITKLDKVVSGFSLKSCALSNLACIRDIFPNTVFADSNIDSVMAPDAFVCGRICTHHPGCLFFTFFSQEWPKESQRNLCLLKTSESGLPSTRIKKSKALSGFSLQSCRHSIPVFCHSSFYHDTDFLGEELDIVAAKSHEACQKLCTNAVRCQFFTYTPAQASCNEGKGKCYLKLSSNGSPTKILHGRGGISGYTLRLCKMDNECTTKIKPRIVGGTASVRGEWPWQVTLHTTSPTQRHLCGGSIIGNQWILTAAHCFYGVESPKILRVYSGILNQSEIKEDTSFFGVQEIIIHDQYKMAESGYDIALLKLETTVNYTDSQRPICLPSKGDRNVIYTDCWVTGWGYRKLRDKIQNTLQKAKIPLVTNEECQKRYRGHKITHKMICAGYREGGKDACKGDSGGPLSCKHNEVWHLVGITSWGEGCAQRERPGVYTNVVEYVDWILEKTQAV
Sequence of purified human Factor XIa (P03951 whole entry partner, looked up): as the sequence (P03951 whole entry, looked up) above

Sequence of purified human plasma kallikrein (P03952 whole entry, looked up): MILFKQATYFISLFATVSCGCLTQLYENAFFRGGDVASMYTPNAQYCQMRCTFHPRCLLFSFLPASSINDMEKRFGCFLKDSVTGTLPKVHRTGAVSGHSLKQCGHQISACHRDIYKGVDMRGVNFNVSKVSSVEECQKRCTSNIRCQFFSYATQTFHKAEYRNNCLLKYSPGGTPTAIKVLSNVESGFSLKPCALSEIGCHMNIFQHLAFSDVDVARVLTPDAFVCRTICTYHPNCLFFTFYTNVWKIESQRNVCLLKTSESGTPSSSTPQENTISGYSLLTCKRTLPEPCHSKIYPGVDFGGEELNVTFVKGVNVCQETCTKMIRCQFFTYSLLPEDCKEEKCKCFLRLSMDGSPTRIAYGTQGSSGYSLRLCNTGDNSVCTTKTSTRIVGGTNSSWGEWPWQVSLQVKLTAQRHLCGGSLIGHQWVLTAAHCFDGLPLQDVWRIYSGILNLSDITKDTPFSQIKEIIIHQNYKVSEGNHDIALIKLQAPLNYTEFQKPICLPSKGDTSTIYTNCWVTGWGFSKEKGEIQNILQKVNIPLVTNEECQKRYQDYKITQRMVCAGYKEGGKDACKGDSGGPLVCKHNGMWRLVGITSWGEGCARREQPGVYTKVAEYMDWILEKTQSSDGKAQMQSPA
Sequence of purified human plasma kallikrein (P03952 whole entry partner, looked up): as the sequence (P03952 whole entry, looked up) above

| Compound | Ki ([1]; read-out: Plasma Kallikrein Ki) [nM] | Ki ([2]; read-out: Factor XIa Ki) [nM] | Ki ([1]; Plasma Kallikrein Ki) [nM] | Ki [2] [nM] |
| --- | --- | --- | --- | --- |
| CO[C@H]1[C@H](O)[C@@H](CO)OC(Nc2ccc3c(c2)NC(=O)[C@H](C)CCC[C@H](N2CCC(c4c(F)ccc(Cl)c4F)=CC2=O)c2cc-3ccn2)[C@@H]1O (stereo partly drawn) [Example 129, (10R,14S)-14-[4-(3-chloro-2,6-difluorophenyl)-6-oxo-1,2,3,6-tetrahydropyridin-1-yl]-5-{[(3R,4S,5R,6R)-3,5-dihydroxy-6-(hydroxymethyl)-4-methoxyoxan-2-yl]amino}-10-methyl-8,16-diazatricyclo[13.3.1.0^2,7]nonadeca-1(19),2,4,6,15,17-hexaen-9-one] | 21.7 | 8.29 | – | – |
| C[C@@H]1CCC[C@H](N2CCC(c3c(F)ccc(Cl)c3F)=CC2=O)c2cc(ccn2)-c2ccc(Nc3ncccn3)cc2NC1=O [Example 16, (10R,14S)-14-[4-(3-Chloro-2,6-difluorophenyl)-6-oxo-1,2,3,6-tetrahydropyridin-1-yl]-10-methyl-5-[(pyrimidin-2-yl)amino]-8,16-diazatricyclo[13.3.1.0^2,7]nonadeca-1(19),2(7),3,5,15,17-hexaen-9-one, 2 TFA salt] | 1 | 1.15 | – | – |
| C[C@@H]1CCC[C@H](N2CCC(c3c(F)ccc(Cl)c3F)=CC2=O)c2cc(ccn2)-c2ccc(Nc3ccncc3)cc2NC1=O [Example 89, (10R,14S)-14-[4-(3-Chloro-2,6-difluorophenyl)-6-oxo-1,2,3,6-tetrahydropyridin-1-yl]-10-methyl-5-[(pyridin-4-yl)amino]-8,16-diazatricyclo[13.3.1.0^2,7]nonadeca-1(19),2(7),3,5,15,17-hexaen-9-one, 2 TFA salt] | 5 | 2.43 | – | – |
| C[C@@H]1CCC[C@H](N2CCC(c3c(F)ccc(Cl)c3F)=CC2=O)c2cc(ccn2)-c2cc(F)c(N)cc2NC1=O [Example 143, (10R,14S)-5-amino-14-[4-(3-chloro-2,6-difluorophenyl)-6-oxo-1,2,3,6-tetrahydropyridin-1-yl]-4-fluoro-10-methyl-8,16-diazatricyclo[13.3.1.0^2,7]nonadeca-1(19),2(7),3,5,15,17-hexaen-9-one] | 3.38 | 1.31 | – | – |
| C[C@@H]1CCC[C@H](N2CCC(c3c(F)ccc(Cl)c3F)=CC2=O)c2cc(ccn2)-c2ccc(Nc3nnc(C4CC4)o3)cc2NC1=O [Example 39, (10R,14S)-14-[4-(3-Chloro-2,6-difluorophenyl)-6-oxo-1,2,3,6-tetrahydropyridin-1-yl]-5-[(5-cyclopropyl-1,3,4-oxadiazol-2-yl)amino]-10-methyl-8,16-diazatricyclo[13.3.1.0^2,7]nonadeca-1(19),2(7),3,5,15,17-hexaen-9-one, TFA salt] | 2 | 0.67 | – | – |
| C[C@@H]1CCC[C@H](N2CCC(c3c(Br)ccc(Cl)c3F)=CC2=O)c2cc(ccn2)-c2c(F)cc(F)cc2NC1=O [Example 202, (10R,14S)-14-[4-(6-bromo-3-chloro-2-fluorophenyl)-6-oxo-1,2,3,6-tetrahydropyridin-1-yl]-3,5-difluoro-10-methyl-8,16-diazatricyclo[13.3.1.0^2,7]nonadeca-1(19),2(7),3,5,15,17-hexaen-9-one] | 30.1 | 8.56 | – | – |
| C[C@@H]1CCC[C@H](N2CCC(c3c(F)ccc(Cl)c3F)=CC2=O)c2cc(ccn2)-c2c(cccc2C(=O)O)NC1=O [Example 214, (10R,14S)-14-[4-(3-chloro-2,6-difluorophenyl)-6-oxo-1,2,3,6-tetrahydropyridin-1-yl]-10-methyl-9-oxo-8,16-diazatricyclo[13.3.1.0^2,7]nonadeca-1(19),2(7),3,5,15,17-hexaene-3-carboxylic acid, TFA salt] | > 13000 | > 423 | – | – |
| C[C@@H]1CCC[C@H](N2CCC(c3c(F)ccc(Cl)c3F)=CC2=O)c2cc(ccn2)-c2ccc(Nc3cccnn3)cc2NC1=O [Example 196, (10R,14S)-14-[4-(3-chloro-2,6-difluorophenyl)-6-oxo-1,2,3,6-tetrahydropyridin-1-yl]-10-methyl-5-[(pyridazin-3-yl)amino]-8,16-diazatricyclo[13.3.1.0^2,7]nonadeca-1(19),2(7),3,5,15,17-hexaen-9-one, 2 TFA salt] | 1.52 | 0.8 | – | – |
| COC(=O)Nc1ccc2c(c1)NC(=O)[C@H](C)CCC[C@H](N1CCC(c3c(C#N)ccc4c(N)noc34)=CC1=O)c1cc-2cc(OC)n1 [Example 9, Methyl N-[(10R,14S)-14-[4-(3-amino-6-cyano-1,2-benzoxazol-7-yl)-6-oxo-1,2,3,6-tetrahydropyridin-1-yl]-17-methoxy-10-methyl-9-oxo-8,16-diazatricyclo[13.3.1.0^2,7]nonadeca-1(18),2,4,6,15(19),16-hexaen-5-yl]carbamate, TFA salt] | 46 | 33.2 | – | – |
| C[C@@H]1CCC[C@H](N2CCC(c3c(C#N)ccc(C#N)c3F)=CC2=O)c2cc(ccn2)-c2cc(F)c(F)cc2NC1=O [Example 210, 2-{1-[(10R,14S)-4,5-difluoro-10-methyl-9-oxo-8,16-diazatricyclo[13.3.1.0^2,7]nonadeca-1(19),2(7),3,5,15,17-hexaen-14-yl]-6-oxo-1,2,3,6-tetrahydropyridin-4-yl}-3-fluorobenzene-1,4-dicarbonitrile, TFA salt] | 1200 | 477 | – | – |
| COC(=O)Nc1ccc2c(c1)NC(=O)[C@H](C)CCC[C@H](N1CCC(c3c(C(F)(F)F)ccc(Cl)c3F)=CC1=O)c1cc-2ccn1 [Example 25, Methyl N-[(10R,14S)-14-{4-[3-chloro-2-fluoro-6-(trifluoromethyl)phenyl]-6-oxo-1,2,3,6-tetrahydropyridin-1-yl}-10-methyl-9-oxo-8,16-diazatricyclo[13.3.1.0^2,7]nonadeca-1(19),2,4,6,15,17-hexaen-5-yl]carbamate, TFA salt] | 12 | 0.1 | – | – |
| COC(=O)Nc1ccc2c(c1)NC(=O)[C@H](C)CCC[C@H](N1CCC(C3CCCCN3C)=CC1=O)c1cc-2ccn1 (stereo partly drawn) [Example 158, Methyl N-[(10R,14S)-10-methyl-14-[4-(1-methylpiperidin-2-yl)-6-oxo-1,2,3,6-tetrahydropyridin-1-yl]-9-oxo-8,16-diazatricyclo[13.3.1.0^2,7]nonadeca-1(19),2,4,6,15,17-hexaen-5-yl]carbamate, 2 TFA salt] | 10900 | > 404 | – | – |
| CC1CCC[C@H](N2CCC(c3c(Br)ccc(Cl)c3F)=CC2=O)c2cc(ccn2)-c2ccc(-c3nnc[nH]3)cc2NC1=O (stereo partly drawn) [Example 38, (14S)-14-[4-(6-Bromo-3-chloro-2-fluorophenyl)-6-oxo-1,2,3,6-tetrahydropyridin-1-yl]-10-methyl-5-(4H-1,2,4-triazol-3-yl)-8,16-diazatricyclo[13.3.1.0^2,7]nonadeca-1(19),2(7),3,5,15,17-hexaen-9-one, TFA salt] | 6 | 2.77 | – | – |
| COC(=O)Nc1ccc2c(c1)NC(=O)[C@H](C)CCC[C@H](N1CCC(c3c(F)ccc(Cl)c3F)=CC1=O)c1nc-2c(Cl)[nH]1 [Example 135, Methyl N-[(10R,14S)-17-chloro-14-[4-(3-chloro-2,6-difluorophenyl)-6-oxo-1,2,3,6-tetrahydropyridin-1-yl]-10-methyl-9-oxo-8,16,18-triazatricyclo[13.2.1.0^2,7]octadeca-1(17),2,4,6,15(18)-pentaen-5-yl]carbamate, TFA salt] | 0.56 | 0.05 | – | – |
| C[C@@H]1CCC[C@H](N2CCC(c3c(C#N)ccc(C#N)c3F)=CC2=O)c2cc(ccn2)-c2c(ccc(F)c2F)NC1=O [Example 209, 2-{1-[(10R,14S)-3,4-difluoro-10-methyl-9-oxo-8,16-diazatricyclo[13.3.1.0^2,7]nonadeca-1(19),2(7),3,5,15,17-hexaen-14-yl]-6-oxo-1,2,3,6-tetrahydropyridin-4-yl}-3-fluorobenzene-1,4-dicarbonitrile, TFA salt] | 457 | 120 | – | – |
| COC(=O)Nc1ccc2c(c1)NC(=O)[C@H](C)CCC[C@H](N1CCC(c3c(OC(F)F)ccc(Cl)c3F)=CC1=O)c1cc-2ccn1 [Example 32, Methyl N-[(10R,14S)-14-{4-[3-chloro-6-(difluoromethoxy)-2-fluorophenyl]-6-oxo-1,2,3,6-tetrahydropyridin-1-yl}-10-methyl-9-oxo-8,16-diazatricyclo[13.3.1.0^2,7]nonadeca-1(19),2,4,6,15,17-hexaen-5-yl]carbamate, TFA salt] | 6 | 0.06 | – | – |
| COC(=O)Nc1ccc2c(c1)C(=O)NCCCCC[C@H](N1CCC(c3c(F)ccc(Cl)c3F)=CC1=O)c1cc-2ccn1 [Example 152, Methyl N-[(15S)-15-[4-(3-chloro-2,6-difluorophenyl)-6-oxo-1,2,3,6-tetrahydropyridin-1-yl]-8-oxo-9,17-diazatricyclo[14.3.1.0^2,7]icosa-1(20),2(7),3,5,16,18-hexaen-5-yl]carbamate, TFA salt] | 24.3 | 25.6 | – | – |
| COC(=O)Nc1ccc2c(c1)NC(=O)CCCCC[C@H](N1CCC(c3c(F)ccc(Cl)c3F)=CC1=O)c1cc-2ccn1 [Example 219, Methyl N-[(15S)-15-[4-(3-chloro-2,6-difluorophenyl)-6-oxo-1,2,3,6-tetrahydropyridin-1-yl]-9-oxo-8,17-diazatricyclo[14.3.1.0^2,7]icosa-1(20),2(7),3,5,16,18-hexaen-5-yl]carbamate, TFA salt] | 6.85 | 6.61 | – | – |
| COC(=O)Nc1ccc2c(c1)C(=O)N[C@H](C)CCC[C@H](N1CCC(c3c(F)ccc(Cl)c3F)=CC1=O)c1cc-2ccn1 (single isomer, unassigned; diastereomer b) [Example 194, TFA salt] | – | – | 310 | > 422 |
| COC(=O)Nc1ccc2c(c1)NC(=O)[C@H](C)CCC[C@H](n1ncc(-c3c(F)ccc(Cl)c3F)cc1=O)c1cc-2ccn1 [Example 11, Methyl N-[(10R,14S)-14-[4-(3-chloro-2,6-difluorophenyl)-6-oxo-1,6-dihydropyridazin-1-yl]-10-methyl-9-oxo-8,16-diazatricyclo[13.3.1.0^2,7]nonadeca-1(19),2(7),3,5,15,17-hexaen-5-yl]carbamate, TFA salt] | 14 | 6.77 | – | – |
